Several values for one entry are separate records, joined by “and”; a condition that tells them apart may be missing. Identical values can stand only once. Like-named read-outs stand apart in the source and are kept apart here.
What was measured:
Assay type in all cases: cell-based, human
MOLM-13 = experiment: Cell proliferation assay: GI50
Protocol: (§1) Cell proliferation was analyzed using the CellTiter 96 Aqueous One Solution Cell Proliferation Assay (Promega, Madison, WI). This is a colorimetric method for determining the number of viable cells in proliferation. For the assay, suspension cells were cultured in triplicate at a density of 1 × 10^6 cells/mL in 96-well plates (100.000 cells/well, 100 µL/well), using only the 60 inner wells to avoid any border effects. […] Then, the cells were incubated with 100 μL/well of medium and 20 μL/well of CellTiter 96 Aqueous One Solution reagent for 1–3 h. […] The background absorbance was measured in wells with only cell line medium and solution reagent. First, the average of the absorbance from the control wells was subtracted from all other absorbance values. Data were calculated as the percentage of total absorbance of treated cells/absorbance of non-treated cells. The GI50 values of the different compounds were determined using non-linear regression plots made with GraphPad Prism v5 software.

HL-60 = experiment: Cell proliferation assay: GI50
Protocol: as §1

ML-2 [1] = experiment: Cell proliferation assay: GI50
Protocol: as §1

MV4-11 = experiment: Cell proliferation assay: GI50
Protocol: as §1

ML-2 [2] = experiment: Proteome analysis (LC-MS/MS); conditions: ML-2, 25% GI50, 12 h
Protocol: After cooling down, lysates were incubated at 25 °C with 10 units of DNAse (Benzonase, Merk) and sonicated for 15 min in a Bioruptor for DNA shearing. Protein concentration was determined using microBCA, using BSA as standard. […] LysC, Wako). […] Peptides (500 μg) were labeled with Thermo Scientific […] Isobaric reagents for 1 h at 25 C. […] The final mixture was desalted using a 500 mg Sep-Pak C18t cartridge (Waters) and dried prior to high pH reverse phase HPLC pre-fractionation. Labeled peptides were fractionated offline through a high pH reverse phase chromatography using an Ultimate 3000 HPLC system equipped with a sample collector. Briefly, peptides were dissolved in 1200 μL of Buffer A (10 mM NH4OH) and loaded onto a XBridge BEH130 C18 column (3.5 μm, 250 mm length and 3.5 mm ID, Waters). […] One-minute fractions (500 μL) from minute 15 to 65 were collected and neutralized with 10% formic acid. […] Pooled fractions were snap-frozen and lyophilized. LC-MS/MS was done by coupling an UltiMate 3000 RSLCnano LC system to an Orbitrap Exploris 480 mass spectrometer (Thermo Fisher Scientific). […] The mass spectrometer was operated in a data-dependent mode, with an automatic switch between MS and MS/MS scans using a top 15 method. (Intensity threshold ≥ 1e4, dynamic exclusion of 20 sec and excluding charges unassigned, +1 and ≥ +7). MS spectra were acquired from 350 to 1500 m/z with a resolution of 60,000 FMHW (200 m/z). Ion peptides were isolated using a 0.7 Th window and fragmented using higher-energy collisional dissociation (HCD) with a normalized collision energy NCE of 36. MS/MS spectra were acquired with a fixed first mass of 120 m/z and a resolution of 45,000 FMHW (200 m/z). […] For total protein analysis, raw files were processed with MaxQuant (v 2.4.9.0) using the standard settings against the same protein database. […] Briefly, proteins/sites with less than eighteen valid values were filtered out. Then, a global normalization of log2-transformed intensities across samples was performed using the LOESS function. Differential analysis was done using the empirical Bayes statistics Limma. […] The FDR was estimated to be below 2% by Benjamini-Hochberg.

[3] = Homo sapiens, MOLM-13, MOLM-13, replicates 1-3
[4] = HL-60, replicates 1-3, read-out: GI50
[5] = Homo sapiens, HL-60, 48 h, read-out: GI50
[6] = Homo sapiens, HL-60, HL-60, replicates 1-3, read-out: GI50
[7] = Homo sapiens, ML-2, ML-2, replicates 1-3
[8] = Homo sapiens, MV4-11, MV4-11, replicates 1-3
[9] = Homo sapiens, HL-60, 48 h, 48 h, read-out: HL-60 GI50

GI50 (MOLM-13; Homo sapiens, MOLM-13, 48 h) [nM]	GI50 (HL-60; [5]) [nM]	SMILES	GI50 (MOLM-13; [3]) [nM]	GI50 (MOLM-13; MOLM-13, replicates 1-3)	GI50 (HL-60; [4])	GI50 (HL-60; [6]) [nM]	GI50 (ML-2 [1]; Homo sapiens, ML-2, 48 h) [nM]	GI50 (ML-2 [1]; [7]) [nM]	GI50 (ML-2 [1]; ML-2, replicates 1-3)	GI50 (MV4-11; Homo sapiens, MV4-11, 48 h) [nM]	GI50 (MV4-11; [8]) [nM]	GI50 (MV4-11; MV4-11, replicates 1-3)	proteins significantly regulated, of 8342 quantified (ML-2 [2]) [%]	GI50 (HL-60; [9]) [nM]	other results
> 10000	> 10000	CC1=C(/C=C/C(C)=C/C=C/C(C)=C/C(=O)O)C(C)(C)CCC1 [ATRA, all-trans retinoic acid, reference compound]	> 10000	> 10000 nM	> 10000 nM	> 10000	> 10000	> 10000	> 10000 nM	> 10000	> 10000	> 10000 nM	–	–	–
–	–	COc1cc2nc(-c3ccc(C)o3)cc(NCC3CCN(c4ncc(C(=O)NO)cn4)CC3)c2cc1OC [CM-444, 2-[4-[[[6,7-dimethoxy-2-(5-methyl-2-furyl)-4-quinolyl]amino]methyl]-1-piperidyl]pyrimidine-5-carbohydroxamic acid]	1370	1120 nM and 883 nM	987 nM and 1020 nM	1260	–	988	1150 nM and 956 nM	621	458	765 nM and 641 nM	9.5	1090	–
–	–	Cc1[nH]c2ccccc2c1CCNCc1ccc(/C=C/C(=O)NO)cc1 [Panobinostat, reference compound]	–	–	–	–	–	–	–	–	–	–	5.8	–	GI50 (MOLM-13; Homo sapiens, MOLM-13, MOLM-13): 32 nM; GI50 (MOLM-13; Homo sapiens, MOLM-13, MOLM-13, replicates 1-3, nM for Panobistat and Quisinostat): 23.2 nM; GI50 (MOLM-13; MOLM-13, replicates 1-3, nM for Panobistat and Quisinostat): 41.5 nM and 31.3 nM; GI50 (HL-60; HL-60, replicates 1-3, nM for Panobistat and Quisinostat, read-out: GI50): 15.6 nM and 19.3 nM; GI50 (HL-60; Homo sapiens, HL-60, HL-60, replicates 1-3, nM for Panobistat and Quisinostat, read-out: GI50): 19.1 nM; GI50 (HL-60; Homo sapiens, HL-60, HL-60, read-out: GI50): 18 nM; GI50 (ML-2 [1]; Homo sapiens, ML-2, ML-2): 51.6 nM; GI50 (ML-2 [1]; Homo sapiens, ML-2, ML-2, replicates 1-3, nM for Panobistat and Quisinostat): 46.8 nM; GI50 (ML-2 [1]; ML-2, replicates 1-3, nM for Panobistat and Quisinostat): 65.3 nM and 42.7 nM; GI50 (MV4-11; Homo sapiens, MV4-11, MV4-11): 13 nM; GI50 (MV4-11; Homo sapiens, MV4-11, MV4-11, replicates 1-3, nM for Panobistat and Quisinostat): 14.5 nM; GI50 (MV4-11; MV4-11, replicates 1-3, nM for Panobistat and Quisinostat): 13.3 nM and 11.2 nM
3200	5200	O=C(CCCCCCC(=O)Nc1ccccc1)NO [Vorinostat, reference compound]	–	–	–	–	4500	–	–	2500	–	–	2.7	–	GI50 (MOLM-13; Homo sapiens, MOLM-13, MOLM-13, replicates 1-3, µM for the other inhibitors): 3100 nM; GI50 (MOLM-13; MOLM-13, replicates 1-3, µM for the other inhibitors): 3000 nM and 3600 nM; GI50 (HL-60; HL-60, replicates 1-3, µM for the other inhibitors, read-out: GI50): 4900 nM and 5600 nM; GI50 (HL-60; Homo sapiens, HL-60, HL-60, replicates 1-3, µM for the other inhibitors, read-out: GI50): 5100 nM; GI50 (ML-2 [1]; Homo sapiens, ML-2, ML-2, replicates 1-3, µM for the other inhibitors): 4300 nM; GI50 (ML-2 [1]; ML-2, replicates 1-3, µM for the other inhibitors): 4200 nM and 5000 nM; GI50 (MV4-11; Homo sapiens, MV4-11, MV4-11, replicates 1-3, µM for the other inhibitors): 2700 nM; GI50 (MV4-11; MV4-11, replicates 1-3, µM for the other inhibitors): 2900 nM and 2000 nM

SMILES	GI50 (MOLM-13; Homo sapiens, MOLM-13, 48 h) [nM]	GI50 (HL-60; [5]) [nM]	GI50 (MOLM-13; [3]) [nM]	GI50 (MOLM-13; MOLM-13, replicates 1-3)	GI50 (HL-60; [4])	GI50 (HL-60; [6]) [nM]	GI50 (ML-2 [1]; Homo sapiens, ML-2, 48 h) [nM]	GI50 (ML-2 [1]; [7]) [nM]	GI50 (ML-2 [1]; ML-2, replicates 1-3)	GI50 (MV4-11; Homo sapiens, MV4-11, 48 h) [nM]	GI50 (MV4-11; [8]) [nM]	GI50 (MV4-11; MV4-11, replicates 1-3)	proteins significantly regulated, of 8342 quantified (ML-2 [2]) [%]	GI50 (HL-60; [9]) [nM]	other results
COc1cc2nc(-c3cc(C)oc3C)cc(NCC3CCN(c4ncc(C(=O)NO)cn4)CC3)c2cc1OC [CM-1758, 2-[4-[[[2-(2,5-dimethyl-3-furyl)-6,7-dimethoxy-4-quinolyl]amino]methyl] -1-piperidyl]pyrimidine-5-carbohydroxamic acid]	558	–	412	685 nM and 576 nM	1020 nM and 1180 nM	1360	844	869	812 nM and 849 nM	292	–	498 nM and 125 nM and 252 nM	8.8	1190	–

From article PMC11219871, “Epigenetic-based differentiation therapy for Acute Myeloid Leukemia” (Nature Communications, 2024)
